According to ChEMBL document CHEMBL1201862, “PubChem BioAssay data set” (2004):
The source made the active and inactive calls.

Tests used:
Cytochrome P450 2C19 = Cytochrome P450 2C19 (Homo sapiens, UniProt P33261); experiment: Cytochrome panel assay with activity outcomes. Panel member name: p450-cyp2c19 Compounds with AC50 equal or less than 10 uM are considered active; assay type: functional
[1] = NIH3T3 cell viability loss – ATP luminescence, mouse fibroblasts, counter-screen, dose response (AID 2010); assay type: functional, cell-based;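 note: cells exposed to compound for about 90 hours before reading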
[2] = Trypanosoma cruzi growth suppression in host cells – NIH3T3 host cells, beta-gal luminescence, confirmation (AID 2044); assay type: functional, cell-based;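 note: intracellular parasites grown in NIH/3T3 mouse fibroblasts as host cells; luminescent beta-galactosidase reporter signal from transgenic T. cruzi replicating inside host cells; inhibitors lower the luminescence signal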
[3] = target: T1, Replicative DNA helicase DnaB (Mycobacterium tuberculosis, UniProt P9WMR3); experiment: DnaB intein splicing inhibitors, dose response, biochemical, cell-free fluorescence (AID 449749); assay type: functional
T1 sequence (P9WMR3 whole entry): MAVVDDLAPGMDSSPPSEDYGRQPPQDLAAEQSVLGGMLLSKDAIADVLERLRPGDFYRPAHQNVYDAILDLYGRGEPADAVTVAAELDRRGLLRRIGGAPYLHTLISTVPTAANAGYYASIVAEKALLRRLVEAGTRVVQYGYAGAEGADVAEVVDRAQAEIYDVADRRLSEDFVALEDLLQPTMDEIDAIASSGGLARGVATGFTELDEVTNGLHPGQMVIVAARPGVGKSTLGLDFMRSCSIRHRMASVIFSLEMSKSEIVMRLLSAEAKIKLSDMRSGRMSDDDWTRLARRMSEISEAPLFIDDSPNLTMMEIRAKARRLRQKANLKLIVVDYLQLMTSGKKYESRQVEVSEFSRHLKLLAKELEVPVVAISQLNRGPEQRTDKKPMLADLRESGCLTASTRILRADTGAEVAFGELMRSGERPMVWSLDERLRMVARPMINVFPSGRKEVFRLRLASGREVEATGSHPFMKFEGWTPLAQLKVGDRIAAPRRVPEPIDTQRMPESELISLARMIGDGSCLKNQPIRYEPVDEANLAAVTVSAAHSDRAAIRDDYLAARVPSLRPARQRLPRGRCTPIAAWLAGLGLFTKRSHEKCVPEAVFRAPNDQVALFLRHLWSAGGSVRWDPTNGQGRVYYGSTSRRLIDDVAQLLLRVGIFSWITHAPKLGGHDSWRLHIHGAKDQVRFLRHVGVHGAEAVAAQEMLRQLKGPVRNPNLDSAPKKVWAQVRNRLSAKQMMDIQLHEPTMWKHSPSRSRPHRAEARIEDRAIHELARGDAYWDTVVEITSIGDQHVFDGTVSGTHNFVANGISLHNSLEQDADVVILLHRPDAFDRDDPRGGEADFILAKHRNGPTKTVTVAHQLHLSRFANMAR

Protein RecA = target: T2, Protein RecA (Mycobacterium tuberculosis, UniProt P9WHJ3); experiment: Fluorescence Cell-Free Homogeneous Dose Retest to Identify Inhibitors of RecA-Intein Splicing Activity. [Related pubchem assays (depositor defined):AID2097, AID2223, AID489010, AID492950]; assay type: functional
T2 sequence (P9WHJ3 whole entry): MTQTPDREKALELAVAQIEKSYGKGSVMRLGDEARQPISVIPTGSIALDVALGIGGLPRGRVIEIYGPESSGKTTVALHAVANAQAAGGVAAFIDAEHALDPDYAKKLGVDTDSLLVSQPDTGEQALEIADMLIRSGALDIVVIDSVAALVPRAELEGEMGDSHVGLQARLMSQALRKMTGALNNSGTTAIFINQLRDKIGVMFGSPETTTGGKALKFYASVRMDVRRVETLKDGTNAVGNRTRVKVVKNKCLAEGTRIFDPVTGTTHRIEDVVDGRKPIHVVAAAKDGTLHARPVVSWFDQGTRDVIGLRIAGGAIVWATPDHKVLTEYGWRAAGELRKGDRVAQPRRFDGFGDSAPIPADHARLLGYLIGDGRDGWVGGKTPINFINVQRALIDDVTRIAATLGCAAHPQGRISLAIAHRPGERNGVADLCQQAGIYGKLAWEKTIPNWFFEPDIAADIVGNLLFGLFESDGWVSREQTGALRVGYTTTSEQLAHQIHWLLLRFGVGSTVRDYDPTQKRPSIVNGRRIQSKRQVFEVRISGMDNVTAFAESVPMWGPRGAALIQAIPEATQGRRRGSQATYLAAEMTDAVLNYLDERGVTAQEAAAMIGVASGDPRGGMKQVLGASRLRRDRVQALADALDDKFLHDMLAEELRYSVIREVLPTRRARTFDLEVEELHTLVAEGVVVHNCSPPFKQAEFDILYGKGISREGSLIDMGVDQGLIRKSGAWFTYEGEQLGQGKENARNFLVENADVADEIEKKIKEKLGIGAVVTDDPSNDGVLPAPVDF

Cytochrome P450 3A4 = Cytochrome P450 3A4 (Homo sapiens, UniProt P08684);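 note: CYP3A4 tested as one member of a cytochrome P450 panel screen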
[4] = luciferase reporter signal suppression in cells – H4 neuroglioma cells, luminescence, dose response (AID 1990); assay type: functional, cell-based
[5] = Luminescence Cell-Based Dose Response HTS to Identify Inhibitors of 5'UTR Stem-Loop Driven Prion Protein mRNA Translation in H4 Neuroglioblastoma Cells. [Related pubchem assays: 1827 (Project Summary), 1813 (Primary HTS)]; assay type: functional
[6] = alpha-synuclein stem-loop luciferase translation blockers – H4 neuroglioma cells, luminescence, confirmation (AID 1988); assay type: functional, cell-based
Streptococcus = experiment: GAS UMAA2166 growth inhibition – luminescence, BacTiterGlo, counter-screen for streptokinase expression inhibitor project, dose response (AID 1915); assay type: functional, organism-based;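 note: potency for reduction of bacterial viability or growth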
[7] = test system: Streptococcus sp. 'group A'; experiment: Streptococcus pyogenes SK(-)GAS viability under kanamycin – luminescence, BacTiterGlo, confirmation, counter-screen for streptokinase expression inhibitor project, dose response (AID 1900); assay type: functional, organism-based
INS1 = experiment: INS-1E survival protection against cytokine death – cell-based, luminescence, retest, dose response (AID 449756); assay type: functional; conditions: Rattus norvegicus;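 note: cell death triggered by IL-1 beta plus TNF-alpha plus IFN-gamma mixture; protective hits raise ATP signal compared with cytokine alone wells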
[8] = Luminescence Cell-Based Dose Retest to Confirm Inhibitors of Cancer Stem Cells. [Related pubchem assays (depositor defined):AID2717, AID2721]; assay type: functional; conditions: Homo sapiens
Cytochrome P450 2C9 = Cytochrome P450 2C9 (Homo sapiens, UniProt P11712)
[9] = Luminescence Cell-Based Dose Confirmation HTS to Identify Inhibitors of Platelet Dense Granule Release. [Related pubchem assays: 1663 (Primary HTS), 1678 (Summary of Project)]; assay type: functional
[10] = target: Luciferin 4-monooxygenase (Photinus pyralis, UniProt P08659); experiment: inhibition of purified Photinus pyralis luciferase – biochemical, luminescence, dose response (AID 1891)
[11] = reduction of Shn3 3'UTR-driven luciferase in osteoblasts – cell-based, Clone20 osteoblasts, firefly luciferase, cherry-picked, dose response (AID 624132); assay type: functional;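 note: firefly luciferase luminescence from reporter carrying the Shn3 3'UTR in osteoblasts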
[12] = non-specific 3'UTR reporter inhibition in Clone20-Shn3RL – cell-based, Renilla luciferase, cherry-picked, counter-screen for Shn3 inhibitor project, dose response (AID 624133); assay type: functional

Chain of Luciferin 4-monooxygenase (P08659 whole entry): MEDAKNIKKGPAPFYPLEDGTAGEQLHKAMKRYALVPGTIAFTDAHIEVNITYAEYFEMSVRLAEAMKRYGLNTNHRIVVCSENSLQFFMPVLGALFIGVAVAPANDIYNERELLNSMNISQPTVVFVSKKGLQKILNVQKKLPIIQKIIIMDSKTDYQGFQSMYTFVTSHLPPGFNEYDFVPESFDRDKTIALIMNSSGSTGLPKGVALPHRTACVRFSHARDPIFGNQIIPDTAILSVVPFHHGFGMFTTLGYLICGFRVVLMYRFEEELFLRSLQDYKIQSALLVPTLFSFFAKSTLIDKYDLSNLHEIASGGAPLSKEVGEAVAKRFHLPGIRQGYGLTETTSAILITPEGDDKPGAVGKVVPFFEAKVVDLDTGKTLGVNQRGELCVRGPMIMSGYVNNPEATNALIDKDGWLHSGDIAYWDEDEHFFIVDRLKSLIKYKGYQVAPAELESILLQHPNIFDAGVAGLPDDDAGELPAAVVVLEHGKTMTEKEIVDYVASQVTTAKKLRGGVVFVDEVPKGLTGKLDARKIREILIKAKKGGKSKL
Chain of Cytochrome P450 2C19 (P33261 whole entry): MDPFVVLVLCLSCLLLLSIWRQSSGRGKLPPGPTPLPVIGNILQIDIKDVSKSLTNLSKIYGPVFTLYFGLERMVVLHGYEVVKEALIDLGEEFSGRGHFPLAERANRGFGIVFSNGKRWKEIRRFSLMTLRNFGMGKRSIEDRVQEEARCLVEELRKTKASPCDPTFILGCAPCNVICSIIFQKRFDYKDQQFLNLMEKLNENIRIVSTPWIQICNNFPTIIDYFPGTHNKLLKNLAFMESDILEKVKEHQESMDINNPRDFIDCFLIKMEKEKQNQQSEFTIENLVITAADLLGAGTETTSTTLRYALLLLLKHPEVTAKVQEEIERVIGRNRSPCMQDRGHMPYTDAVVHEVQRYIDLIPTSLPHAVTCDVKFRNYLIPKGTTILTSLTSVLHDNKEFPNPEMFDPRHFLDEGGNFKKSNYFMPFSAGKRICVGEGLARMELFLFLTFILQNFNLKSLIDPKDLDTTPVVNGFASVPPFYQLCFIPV
Chain of Cytochrome P450 3A4 (P08684 whole entry): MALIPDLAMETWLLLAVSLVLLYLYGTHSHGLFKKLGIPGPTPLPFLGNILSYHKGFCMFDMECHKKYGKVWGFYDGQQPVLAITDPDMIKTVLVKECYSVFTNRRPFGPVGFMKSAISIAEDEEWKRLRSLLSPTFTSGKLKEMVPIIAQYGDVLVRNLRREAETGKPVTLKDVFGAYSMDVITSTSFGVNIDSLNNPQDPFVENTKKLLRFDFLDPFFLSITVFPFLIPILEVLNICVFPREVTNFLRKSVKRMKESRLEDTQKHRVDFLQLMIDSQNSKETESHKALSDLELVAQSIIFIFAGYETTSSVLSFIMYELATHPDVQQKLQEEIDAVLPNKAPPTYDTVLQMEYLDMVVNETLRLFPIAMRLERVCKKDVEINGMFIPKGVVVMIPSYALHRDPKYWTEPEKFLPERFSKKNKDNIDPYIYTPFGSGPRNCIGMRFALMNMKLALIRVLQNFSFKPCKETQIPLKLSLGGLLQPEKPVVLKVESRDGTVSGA
Chain of Cytochrome P450 2C9 (P11712 whole entry): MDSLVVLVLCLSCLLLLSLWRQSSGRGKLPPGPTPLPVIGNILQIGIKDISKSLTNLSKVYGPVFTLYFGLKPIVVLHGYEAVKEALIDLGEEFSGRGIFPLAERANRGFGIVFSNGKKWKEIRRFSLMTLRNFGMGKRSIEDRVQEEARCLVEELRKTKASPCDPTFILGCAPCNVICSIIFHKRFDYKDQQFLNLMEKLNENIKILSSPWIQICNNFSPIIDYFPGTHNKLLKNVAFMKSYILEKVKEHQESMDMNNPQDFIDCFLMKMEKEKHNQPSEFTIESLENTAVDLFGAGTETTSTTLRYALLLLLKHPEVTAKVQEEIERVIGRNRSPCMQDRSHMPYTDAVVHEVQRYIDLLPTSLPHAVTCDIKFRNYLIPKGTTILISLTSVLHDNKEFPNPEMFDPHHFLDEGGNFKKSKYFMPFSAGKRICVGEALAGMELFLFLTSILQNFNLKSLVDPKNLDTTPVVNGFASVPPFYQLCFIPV

CN1CCc2[nH]nc(-c3n[nH]c4c3CN(C)CC4)c2C1
AC50 (Cytochrome P450 2C19): inconclusive

O=[N+]([O-])c1ccc(Sc2nc(O)c3ccccc3n2)c([N+](=O)[O-])c1
EC50 [1]: > 60 µM (not active) | EC50 [2]: 1.48 µM (active) | AC50 [3]: 16.9 µM (active) | EC50 (Protein RecA): 6.05 µM (active)

COc1ccc(CCN2CC34C=CC(O3)C(C(=O)NCc3ccccc3)C4C2=O)cc1OC (stereo not given)
AC50 (Cytochrome P450 2C19; read-out: AC50): 14.1 µM (inconclusive)

COc1cccc(Nc2ncc3ncc(=O)n(C)c3n2)c1
AC50 (Cytochrome P450 2C19): inconclusive | AC50 (Cytochrome P450 3A4): 12.6 µM (inconclusive)

CCC(C)Nc1nc(N)c([N+](=O)[O-])c(Nc2ccccc2OC)n1 (stereo not given)
EC50 [4]: 13.5 µM (active) | EC50 [5]: > 120 µM (not active) | EC50 [6]: > 120 µM (not active)

C/C(=N\NC(=O)COc1ccccc1-c1ccccc1)c1ccc(O)cc1O
EC50 [1]: 4.94 µM (active) | EC50 (Streptococcus): 5.4 µM (active) | EC50 [7]: 3.01 µM (active) | EC50 [2]: 1.24 µM (active) | AC50 (INS1): 2.48 µM (active) | EC50 [4]: 11.1 µM (active) | EC50 [5]: 9.87 µM (active) | EC50 [6]: 9.9 µM (active)

Cc1ccc(SCc2cc(=O)n(C)[nH]2)cc1
AC50 [3]: 13.3 µM (active) | EC50 (Protein RecA): 5.29 µM (active)

O=[N+]([O-])c1ccc(O)c(-c2nc(-c3ccccc3)c(-c3cccs3)[nH]2)c1
EC50 (Streptococcus): 2.38 µM (active) | EC50 [7]: 1.23 µM (active) | AC50 [8]: 0.662 µM (active) | EC50 [4]: 18.2 µM (active) | EC50 [5]: > 120 µM (not active) | EC50 [6]: > 120 µM (not active)

Cc1cc(-c2c(C)[nH]n(-c3ccccc3)c2=O)n(-c2ccccc2)n1
AC50 (Cytochrome P450 2C19; read-out: AC50): 20 µM (inconclusive)

O=C(Oc1ccc(C(=S)N2CCOCC2)cc1)c1ccc([N+](=O)[O-])cc1[N+](=O)[O-]
AC50 [3]: 18.6 µM (active) | EC50 (Protein RecA): 10.6 µM (active)

CCOc1ccc(S(=O)(=O)N2CCC(C(=O)NCc3cccnc3)CC2)cc1Cl
EC50 [4]: 17.7 µM (active) | EC50 [5]: > 120 µM (not active) | EC50 [6]: > 120 µM (not active)

O=P(O)(O)CCP(=O)(c1ccccc1)c1ccccc1
AC50 (Cytochrome P450 2C19): inconclusive

COc1ccc(-n2c(=O)c(C)nc3cnc(Nc4cccc(OC)c4)nc32)cc1
AC50 (Cytochrome P450 2C19; read-out: AC50): 39.8 µM (inconclusive) | AC50 (Cytochrome P450 3A4): 10 µM (inconclusive) | AC50 (Cytochrome P450 2C9): 39.8 µM (inconclusive)

CC(C)(C)c1[nH]nc2c1C(Cc1ccccc1)C(C#N)=C(N)O2 (stereo not given)
AC50 [3]: 13.8 µM (active) | EC50 (Protein RecA): 2.31 µM (active)

COc1ccc(OCCCC(=O)OC(C)C(=O)Nc2ccc(NC(C)=O)cc2)cc1 (stereo not given)
EC50 [9]: > 112 µM (not active) | EC50 [10]: > 112 µM (not active)

COc1cccc(-c2[nH]nc3c2C(c2ccc(C)o2)C(C#N)=C(N)O3)c1 (stereo not given)
AC50 [3]: 8.74 µM (active) | AC50 (Cytochrome P450 2C9): 15.8 µM (inconclusive) | EC50 (Protein RecA): 1.53 µM (active)

CCCc1cc(=O)oc2c(CN3CCOCC3)c(O)ccc12
AC50 (Cytochrome P450 2C19; read-out: AC50): 25.1 µM (inconclusive)

FC(F)(F)c1ccccc1-c1nc(NC2CCNCC2)c2ccccc2n1
AC50 (Cytochrome P450 2C19): inconclusive

CCCC1C(C#N)=C(N)Oc2[nH]nc(C(C)(C)C)c21 (stereo not given)
AC50 [3]: 2.36 µM (active) | EC50 (Protein RecA): 0.504 µM (active)

CCc1ccc(C(=O)Nc2cccc(-c3nn[nH]n3)c2)s1
EC50 [9]: > 112 µM (not active) | EC50 [10]: 3.49 µM (active)

Cc1ccc(S(=O)(=O)NCc2ccc(C(=O)NC3CC3)cc2)cc1
EC50 [9]: 28.1 µM (active) | EC50 [10]: > 112 µM (not active)

COc1ccc(/C=N\NC(=O)c2ccc(F)cc2)cc1COc1ccccc1C(N)=O
EC50 [9]: > 112 µM (not active) | EC50 [10]: > 112 µM (not active)

CCCc1cc(C(=O)N2CCCC(N3CCN(c4ccccc4F)CC3)C2)n(C)n1 (stereo not given)
EC50 [9]: 21.6 µM (active) | EC50 [10]: > 112 µM (not active)

CCOc1cc(C(c2c(C)n[nH]c2O)c2c(C)n[nH]c2O)cc(Cl)c1O
AC50 [3]: > 380 µM (inactive) | EC50 (Protein RecA): 4.74 µM (active)

COC(=O)c1[nH]c2cc(OC)ccc2c1NC(=O)CN1CCOCC1
EC50 [9]: > 112 µM (not active) | EC50 [10]: > 112 µM (not active)

N#CC(C#N)=NNc1ccc(S(=O)(=O)N2CCCCC2)cc1
AC50 [3]: 4.03 µM (active) | EC50 (Protein RecA): 9.78 µM (active)

CCOC(=O)c1ccc(NC2c3ccccc3C(=O)N2c2cccnc2)cc1 (stereo not given)
EC50 [4]: 20 µM (active) | EC50 [5]: > 120 µM (not active) | EC50 [6]: 9.83 µM (active)

COc1ccc2cc1Oc1ccc(cc1)CC1c3c(cc(OC)c4c3Oc3cc5c(cc3O4)CCNC5C2)CCN1C (stereo not given)
EC50 [1]: 6.68 µM (active) | EC50 [2]: 0.193 µM (active) | EC50 [4]: > 120 µM (not active) | EC50 [5]: 8.28 µM (active) | EC50 [6]: 8.03 µM (active)

Cc1nc2ccccc2c(=O)n1NC(=O)C1CCC(C(C)(C)C)CC1 (stereo not given)
EC50 [4]: > 120 µM (not active) | EC50 [5]: > 120 µM (not active) | EC50 [6]: > 120 µM (not active)

CCC(=O)c1cn(CC(=O)Nc2cccc(C)c2C)c2ccccc12
AC50 [11]: 1.52 µM (active) | AC50 [12]: 3.44 µM (active)

Cc1cc(=O)n2nc(N3CCCC(C(=O)NCc4ccccc4)C3)sc2n1 (stereo not given)
EC50 [9]: > 112 µM (not active) | EC50 [10]: > 112 µM (not active)

O=[N+]([O-])c1cc(-c2ccc(C(=S)N3CCOCC3)o2)ccc1Cl
AC50 [3]: 39.9 µM (active) | EC50 (Protein RecA): 10.2 µM (active)

COc1ccc(C2C(C#N)=C(N)Oc3[nH]nc(C)c32)cc1Cn1cc([N+](=O)[O-])cn1 (stereo not given)
AC50 [3]: 5.32 µM (active) | EC50 (Protein RecA): 3.11 µM (active)

Cc1cc(NC(=O)COC(=O)c2ccc(NS(=O)(=O)c3ccc(C)c(C)c3)cc2)no1
AC50 (Cytochrome P450 2C19; read-out: AC50): 14.1 µM (inconclusive)

COc1ccc(C(=O)NCCOc2cccc(OC)c2)cc1
EC50 [9]: > 112 µM (not active) | EC50 [10]: > 112 µM (not active)

C[N+](C)(C)c1nc(N)nc2c1ncn2[C@H]1O[C@@H](CO)[C@@H](O)[C@H]1O
AC50 (Cytochrome P450 2C19): inconclusive
